Source: patent US5242938A, “Derivatives of virginiamycin M1” (Merck & Co., Inc., priority 1992, dated 1993)
≈ marks a conversion by molar mass, not a printed value. Where two headings read alike, the source gives them in different places.

Experiments:
[1] = target: T1, CCK-B (guinea pig cortex) (Cavia porcellus, UniProt H0VZC5); assay: [125I]BHCCK-8 radioligand binding, guinea pig cortical preparation; settings: read-out: CCK binding inhibition - IC50, [125I]BHCCK
T1 construct: guinea pig cortical preparations; from tissue; host or cells: guinea pig brain cortex membranes
T1 sequence (H0VZC5 1-426): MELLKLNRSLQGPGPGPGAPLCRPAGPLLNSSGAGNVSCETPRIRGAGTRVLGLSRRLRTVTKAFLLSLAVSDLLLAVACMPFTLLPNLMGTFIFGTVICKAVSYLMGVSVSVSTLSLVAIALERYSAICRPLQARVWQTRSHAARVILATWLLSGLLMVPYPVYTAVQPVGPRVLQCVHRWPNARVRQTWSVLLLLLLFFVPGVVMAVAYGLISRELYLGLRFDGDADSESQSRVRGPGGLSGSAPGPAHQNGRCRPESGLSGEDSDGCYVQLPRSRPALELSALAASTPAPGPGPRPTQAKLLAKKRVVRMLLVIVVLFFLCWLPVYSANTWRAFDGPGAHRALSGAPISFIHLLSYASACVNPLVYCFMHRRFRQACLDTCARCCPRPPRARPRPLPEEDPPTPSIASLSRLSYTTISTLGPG
Experimental: (§1) The resulting supernatant was re-spun at 20,000×g for 20 minutes. […] Incubations were for 40 minutes at 4° C. and were terminated by filtration and washing with ice cold 100 mM saline. […] Incubations were for 30 minutes at room temperature and were terminated by filtration over GF/C filters and washing with 100 mM NaCl.

[2] = target: T1, CCK-B (guinea pig cortex); assay: [3H]L-365,260 CCK-B selective antagonist ligand binding, brain membranes; settings: for IC50: read-out: CCK binding inhibition - IC50, [3H]L-365,260
Experimental: as §1

[3] = target: T2, CCK-A (rat pancreas) (Rattus norvegicus, UniProt P30551); assay: [125I]BHCCK-8 radioligand binding, rat pancreatic preparation; settings: read-out: CCK binding inhibition - IC50, [125I]BHCCK
T2 construct: from tissue; host or cells: rat pancreas
T2 sequence (P30551 1-444): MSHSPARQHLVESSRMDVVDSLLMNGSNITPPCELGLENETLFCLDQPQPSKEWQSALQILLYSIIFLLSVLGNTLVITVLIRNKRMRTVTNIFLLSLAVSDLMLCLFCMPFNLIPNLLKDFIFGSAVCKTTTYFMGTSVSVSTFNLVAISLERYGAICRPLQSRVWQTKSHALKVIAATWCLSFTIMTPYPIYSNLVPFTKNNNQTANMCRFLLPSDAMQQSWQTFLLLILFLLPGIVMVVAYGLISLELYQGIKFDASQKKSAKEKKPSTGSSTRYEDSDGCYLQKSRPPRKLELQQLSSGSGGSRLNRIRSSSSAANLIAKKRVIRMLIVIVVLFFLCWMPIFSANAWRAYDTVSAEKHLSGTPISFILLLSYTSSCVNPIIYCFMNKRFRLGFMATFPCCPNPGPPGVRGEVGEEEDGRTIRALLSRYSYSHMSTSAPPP
Experimental: as §1

[4] = target: T2, CCK-A (rat pancreas); assay: [3H]L-364,718 CCK-A selective antagonist ligand binding, pancreas; settings: for IC50: read-out: CCK binding inhibition - IC50, [3H]L-364,718
Experimental: as §1

[5] = tested on: Bacillus sp. (Mb 633); assay: Agar diffusion disc assay, Baci 633; type: cell-based; settings: @ 20 g/disc; for zone of inhibition at 20 µg/disc: Bacillus, 18 h, read-out: Inhibition zone diameter, Baci 633
Experimental: (§2) Cultures employed in evaluating antimicrobial activity included plant pathogens, human and animal opportunistic pathogens and selected laboratory strains having specific-antibiotic sensitivities or chromosomal or R-plasmid-mediated resistances. […] The agar diffusion MIC's were determined using the method described by Barry in Anitbiotics in Laboratory Medicine, 2nd Ed., Ed. V. Lorian, pp. 1-63, William & Wilkins, Baltimore, 1986. Each test compound was dissolved in methanol to a concentration of 1 mg/ml. Serial dilutions of these compounds were also made to determine an agar diffusion MIC. 20 μl of each dilution was pipetted on to 6 mm paper discs, air dried and placed onto the surface of an agar plate seeded with the appropriate bacteria (~10^6 cfu). Seeded agar plates were incubated overnight (~18 hours) at 25° C. Zone sizes were measured to the nearest mm. Each compound was tested in triplicate and the results shown represent the mean.

[6] = tested on: Staphylococcus aureus (Mb 108, ATCC 6538P); assay: Agar diffusion disc assay, Sta 108; type: cell-based; settings: @ 20 g/disc; for zone of inhibition at 20 µg/disc: Staphylococcus aureus, ATCC6538P, 18 h, read-out: Inhibition zone diameter, Sta 108
Experimental: as §2

[7] = tested on: Bacillus subtilis (Mb 964, ATCC 6633); assay: Agar diffusion disc assay, Subt 964; type: cell-based; settings: @ 20 g/disc; for zone of inhibition at 20 µg/disc: Bacillus subtilis, ATCC6633, 18 h, read-out: Inhibition zone diameter, Subt 964
Experimental: as §2

[8] = tested on: Micrococcus luteus (Mb 1101, ATCC 9341); assay: Agar diffusion disc assay, Micr 1101; type: cell-based; settings: for MIC: read-out: Agar Diffusion MIC versus Micrococcus luteus
Experimental: as §2

[9] = tested on: Staphylococcus aureus (Mb 2983); assay: Agar diffusion disc assay, Sta 2983; type: cell-based; settings: @ 20 g/disc; for zone of inhibition at 20 µg/disc: Staphylococcus aureus, 18 h, read-out: Inhibition zone diameter, Sta 2983
Experimental: as §2

[10] = tested on: Corynebacterium pseudodiphtheriticum (Mb 261, ATCC 9742); assay: Agar diffusion disc assay, Cory 261; type: cell-based; parameters: Inhibition zone diameter, Cory 261: dose or concentration left out as unconfirmed; settings: for zone of inhibition at 20 µg/disc: Corynebacterium pseudodiphtheriticum, ATCC9742, 18 h, @ 20 g/disc, read-out: Inhibition zone diameter, Cory 261
Experimental: as §2

[11] = tested on: Streptococcus faecium (Mb 2820); assay: Agar diffusion disc assay, Str 2820; type: cell-based; parameters: Inhibition zone diameter, Str 2820: dose or concentration left out as unconfirmed; settings: for zone of inhibition at 20 µg/disc: Enterococcus faecium, 18 h, @ 20 g/disc, read-out: Inhibition zone diameter, Str 2820
Experimental: as §2

[12] = tested on: Streptococcus agalactiae (Mb 2875); assay: Agar diffusion disc assay, Str 2875; type: cell-based; settings: for zone of inhibition at 20 µg/disc: Streptococcus agalactiae, 18 h, @ 20 g/disc, read-out: Inhibition zone diameter, Str 2875
Experimental: as §2

[13] = tested on: Salmonella gallinarum (Mb 1287); assay: Agar diffusion disc assay, Salm 1287; type: cell-based; settings: @ 20 g/disc; for zone of inhibition at 20 µg/disc: Salmonella enterica, GALLINARUM, 18 h, read-out: Inhibition zone diameter, Salm 1287
Experimental: as §2

[14] = tested on: Escherichia coli (Mb 1418); assay: Agar diffusion disc assay, Coli 1418; type: cell-based; settings: @ 20 g/disc; for zone of inhibition at 20 µg/disc: Escherichia coli, 18 h, read-out: Inhibition zone diameter, Coli 1418
Experimental: as §2

[15] = tested on: Pseudomonas stutzeri (Mb 1231, ATCC 11607); assay: Agar diffusion disc assay, Pseu 1231; type: cell-based; settings: @ 20 g/disc; for zone of inhibition at 20 µg/disc: Stutzerimonas stutzeri, ATCC11607, 18 h, read-out: Inhibition zone diameter, Pseu 1231
Experimental: as §2

[16] = tested on: En terobacter aergenes (Mb 835); assay: Agar diffusion disc assay, Ent 835; type: cell-based; settings: @ 20 g/disc; for zone of inhibition at 20 µg/disc: 18 h, read-out: Inhibition zone diameter, Ent 835
Experimental: as §2

[17] = Micrococcus luteus, ATCC9341, 18 h, @ 20 g/disc, read-out: Inhibition zone diameter, Micr 1101
[18] = Micrococcus luteus, ATCC9341, 18 h
[19] = Micrococcus luteus, ATCC9341, 1.25 μg/disc, 25° C., ~18 hours, read-out: Mean of triplicate zone size versus Micrococcus luteus
[20] = Micrococcus luteus, ATCC9341, 2.50 μg/disc, 25° C., ~18 hours, read-out: Mean of triplicate zone size versus Micrococcus luteus
[21] = Micrococcus luteus, ATCC9341, 5.00 μg/disc, 25° C., ~18 hours, read-out: Mean of triplicate zone size versus Micrococcus luteus
[22] = Micrococcus luteus, ATCC9341, 10.0 μg/disc, 25° C., ~18 hours, read-out: Mean of triplicate zone size versus Micrococcus luteus
[23] = Micrococcus luteus, ATCC9341, 20.0 μg/disc, 25° C., ~18 hours, read-out: Mean of triplicate zone size versus Micrococcus luteus

| Structure (SMILES) | IC50 [1] [nM] | A.R. = agonist ratio = IC50([3H]L365,260)/IC50([125I]CCK) [2] | IC50 [2] [nM] | IC50 [3] [nM] | IC50 [4] [nM] | zone of inhibition at 20 µg/disc [5] [mm] | zone of inhibition at 20 µg/disc [6] [mm] | zone of inhibition at 20 µg/disc [7] [mm] | zone of inhibition at 20 µg/disc [8, 17] [mm] | MIC [8, 18] [µM] | zone of inhibition at 1.25 µg/disc [8, 19] [mm] | zone of inhibition at 2.5 µg/disc [8, 20] [mm] | zone of inhibition at 5 µg/disc [8, 21] [mm] | zone of inhibition at 10 µg/disc [8, 22] [mm] | zone of inhibition at 20 µg/disc [8, 23] [mm] | zone of inhibition at 20 µg/disc [9] [mm] | zone of inhibition at 20 µg/disc [10] [mm] | zone of inhibition at 20 µg/disc [11] [mm] | zone of inhibition at 20 µg/disc [12] [mm] | zone of inhibition at 20 µg/disc [13] [mm] | other results |
| --- | --- | --- | --- | --- | --- | --- | --- | --- | --- | --- | --- | --- | --- | --- | --- | --- | --- | --- | --- | --- | --- |
| CC1=C\[C@@H](OC(=O)Nc2ccccc2)CC(=O)Cc2nc(co2)C(=O)N2CCC=C2C(=O)O[C@H](C(C)C)[C@H](C)/C=C/C(=O)NC\C=C\1 [Example 11] | 300 | 5.3 | 1600 | 2300 | 4000 | 0 | 0 | 0 | 14 | 0.05 (≈ 0.0322 µg/mL) | 7 | 10 | 11 | 12 | 12 | 0 | 0 | 0 | 0 | 0 | A.R. = agonist ratio ([4]; [3H]L-364,718 / [125I]BHCCK): 1.7; zone of inhibition at 20 µg/disc [14]: 0 mm; zone of inhibition at 20 µg/disc [15]: 0 mm; zone of inhibition at 20 µg/disc [16]: 0 mm |
| CNC(=O)O[C@@H]1/C=C(C)/C=C/CNC(=O)/C=C/[C@@H](C)[C@@H](C(C)C)OC(=O)C2=CCCN2C(=O)c2coc(n2)CC(=O)C1 [Example 7] | 800 | 19 | > 3000 | > 3000 | > 3000 | 7 | 19 | 0 | 27 | 1.74 (≈ 1.01 µg/mL) | 8 | 13 | 18 | 22 | 25 | 11 | 22 | 10 | 16 | 0 | percentage in parentheses beside >3.0, [3H]L-365,260 (inhibition at top concentration, not defined) ([2]; beside IC50 >3.0): 14%; zone of inhibition at 20 µg/disc [14]: 0 mm; zone of inhibition at 20 µg/disc [15]: 0 mm; zone of inhibition at 20 µg/disc [16]: 0 mm |
| CC1=C\[C@@H](O)CC(O)Cc2nc(co2)C(=O)N2CCC=C2C(=O)O[C@H](C(C)C)[C@H](C)/C=C/C(=O)NC\C=C\1 (single isomer, unassigned) [Example 14B] | 400 | 1 | 530 | > 3000 | > 3000 |  |  |  |  |  |  |  |  |  |  |  |  |  |  |  | Inhibition zone diameter, Baci 633 [5]: 0 mm; Inhibition zone diameter, Sta 108 [6]: 22 mm; Inhibition zone diameter, Subt 964 [7]: 0 mm; Mean of triplicate zone size versus Micrococcus luteus ([8]; 1.25 μg/disc, 25° C., ~18 hours): 22 mm; Mean of triplicate zone size versus Micrococcus luteus ([8]; 2.50 μg/disc, 25° C., ~18 hours): 25 mm; Mean of triplicate zone size versus Micrococcus luteus ([8]; 5.00 μg/disc, 25° C., ~18 hours): 28 mm; Mean of triplicate zone size versus Micrococcus luteus ([8]; 10.0 μg/disc, 25° C., ~18 hours): 30 mm; Mean of triplicate zone size versus Micrococcus luteus ([8]; 20.0 μg/disc, 25° C., ~18 hours): 32 mm; Inhibition zone diameter, Micr 1101 ([8]; @ 20 µg/disc): 35 mm; MIC [8]: 0.24 µM (≈ 0.127 µg/mL); Inhibition zone diameter, Sta 2983 [9]: 11 mm; Inhibition zone diameter, Cory 261 [10]: 26 mm; Inhibition zone diameter, Str 2820 [11]: 15 mm; Inhibition zone diameter, Str 2875 ([12]; @ 20 µg/disc): 18 mm; Inhibition zone diameter, Salm 1287 [13]: 0 mm; Inhibition zone diameter, Coli 1418 [14]: 0 mm; Inhibition zone diameter, Pseu 1231 [15]: 0 mm; Inhibition zone diameter, Ent 835 [16]: 0 mm |
